Tests used:
Type in all cases: in vivo
[1] = system: Kochia (Kochia scoparia); assay: Test A preemergence; settings: Bassia scoparia, pre-emergence, 240 h; for pest or weed control at 125 g/ha: 125 g ai/ha, preemergence, 0 to 100 scale where 0 is no effect and 100 is complete control, read-out: Kochia plant response rating; for pest or weed control at 500 g/ha: 500 g ai/ha, Preemergence, visual injury vs untreated controls after approximately 10 d, read-out: Kochia plant response rating (0 to 100 scale where 0 is no effect and 100 is complete control)
Outline: (§1)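 In a loam soil and sand blend, planted seeds got a preemergence directed soil spray, and young plants at the one- to two-leaf stage, 2–10 cm high, got a postemergence application; ~10 d greenhouse hold; injury rated visually, 0 = none, 100 = complete control.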

[2] = system: barnyardgrass (Echinochloa crus-galli); assay: Test A preemergence; settings: Echinochloa crus-galli, pre-emergence, 240 h; for pest or weed control at 125 g/ha: 125 g ai/ha, preemergence, 0 to 100 scale where 0 is no effect and 100 is complete control, read-out: Barnyardgrass plant response rating; for pest or weed control at 500 g/ha: 500 g ai/ha, Preemergence, visual injury vs untreated controls after approximately 10 d, read-out: Barnyardgrass plant response rating (0 to 100 scale where 0 is no effect and 100 is complete control)
Outline: as §1

[3] = system: giant foxtail (Setaria faberii); assay: Test A preemergence; settings: Setaria faberi, pre-emergence, 240 h; for pest or weed control at 125 g/ha: 125 g ai/ha, preemergence, 0 to 100 scale where 0 is no effect and 100 is complete control, read-out: Foxtail, Giant plant response rating; for pest or weed control at 500 g/ha: 500 g ai/ha, Preemergence, visual injury vs untreated controls after approximately 10 d, read-out: Foxtail, Giant plant response rating (0 to 100 scale where 0 is no effect and 100 is complete control)
Outline: as §1

[4] = system: pigweed (Amaranthus retroflexus); assay: Test A preemergence; settings: Amaranthus retroflexus, pre-emergence, 240 h; for pest or weed control at 125 g/ha: 125 g ai/ha, preemergence, 0 to 100 scale where 0 is no effect and 100 is complete control, read-out: Pigweed plant response rating; for pest or weed control at 500 g/ha: 500 g ai/ha, Preemergence, visual injury vs untreated controls after approximately 10 d, read-out: Pigweed plant response rating (0 to 100 scale where 0 is no effect and 100 is complete control)
[5] = system: ragweed (common ragweed, Ambrosia elatior); assay: Test A preemergence; settings: Ambrosia artemisiifolia, pre-emergence, 240 h; for pest or weed control at 125 g/ha: 125 g ai/ha, preemergence, 0 to 100 scale where 0 is no effect and 100 is complete control, read-out: Ragweed plant response rating; for pest or weed control at 500 g/ha: 500 g ai/ha, Preemergence, visual injury vs untreated controls after approximately 10 d, read-out: Ragweed plant response rating (0 to 100 scale where 0 is no effect and 100 is complete control)
Outline: as §1

[6] = system: ryegrass, Italian (Italian ryegrass, Lolium multiflorum); assay: Test A preemergence; settings: Lolium multiflorum, pre-emergence, 240 h; for pest or weed control at 125 g/ha: 125 g ai/ha, preemergence, 0 to 100 scale where 0 is no effect and 100 is complete control, read-out: Ryegrass, Italian plant response rating; for pest or weed control at 500 g/ha: 500 g ai/ha, Preemergence, visual injury vs untreated controls after approximately 10 d, read-out: Ryegrass, Italian plant response rating (0 to 100 scale where 0 is no effect and 100 is complete control)
Outline: as §1

[7] = system: Galium (catchweed bedstraw, Galium aparine); assay: Test A postemergence; settings: Galium, post-emergence, 240 h, 125 g ai/ha, postemergence, visual injury rating after approximately 10 d; read-out: Galium plant response rating (0 to 100 scale, 0 no effect, 100 complete control)
Outline: as §1

[8] = system: Kochia (Kochia scoparia); assay: Test A postemergence; settings: Bassia scoparia, post-emergence, 240 h, 125 g ai/ha, postemergence, visual injury rating after approximately 10 d; read-out: Kochia plant response rating (0 to 100 scale, 0 no effect, 100 complete control)
Outline: as §1

[9] = system: barnyardgrass (Echinochloa crus-galli); assay: Test A postemergence; settings: Echinochloa crus-galli, post-emergence, 240 h, 125 g ai/ha, postemergence, visual injury rating after approximately 10 d; read-out: Barnyardgrass plant response rating (0 to 100 scale, 0 no effect, 100 complete control)
Outline: as §1

[10] = system: corn (Zea mays); assay: Test A postemergence; settings: Zea mays, post-emergence, 240 h, 125 g ai/ha, postemergence, visual injury rating after approximately 10 d; read-out: Corn plant response rating (0 to 100 scale, 0 no effect, 100 complete control)
Outline: as §1

[11] = system: pigweed (Amaranthus retroflexus); assay: Test A postemergence; settings: Amaranthus retroflexus, post-emergence, 240 h, 125 g ai/ha, postemergence, visual injury rating after approximately 10 d; read-out: Pigweed plant response rating (0 to 100 scale, 0 no effect, 100 complete control)
Outline: as §1

[12] = system: barnyardgrass (Echinochloa crus-galli); assay: Test B flooded paddy test; settings: Echinochloa crus-galli, Flood, 250 g ai/ha; scale of 0 to 100 where 0 is no effect and 100 is complete control; read-out: Barnyardgrass plant response rating
Outline: (§2)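 2-leaf plants; pots flooded 3 cm over soil; cpd added to paddy water; depth held; greenhouse 13–15 d; visual rating vs controls, 0 = no effect, 100 = complete control.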

[13] = system: ducksalad (Heteranthera limosa); assay: Test B flooded paddy test; settings: Heteranthera limosa, Flood, 250 g ai/ha; scale of 0 to 100 where 0 is no effect and 100 is complete control; read-out: Ducksalad plant response rating
Outline: as §2

[14] = system: rice (Oryra sativa); assay: Test B flooded paddy test; settings: Oryza sativa, Flood, 250 g ai/ha; scale of 0 to 100 where 0 is no effect and 100 is complete control; read-out: Rice plant response rating
Outline: as §2

[15] = system: sedge, umbrella (small-flower umbrella sedge, Cyperus difformis); assay: Test B flooded paddy test; settings: Cyperus difformis, Flood, 250 g ai/ha; scale of 0 to 100 where 0 is no effect and 100 is complete control; read-out: Sedge, Umbrella plant response rating
Outline: as §2

CSc1ccccc1NC(=O)[C@H]1C(=O)N(C)C[C@@H]1c1cc(F)c(F)c(F)c1 [Compound 866]
pest or weed control at 125 g/ha [1]: 20%
pest or weed control at 500 g/ha [1]: 80%
pest or weed control at 125 g/ha [2]: 30%
pest or weed control at 500 g/ha [2]: 90%
pest or weed control at 125 g/ha [3]: 90%
pest or weed control at 500 g/ha [3]: 90%
pest or weed control at 125 g/ha [4]: 0%
pest or weed control at 500 g/ha [4]: 50%
pest or weed control at 125 g/ha [5]: 0%
pest or weed control at 500 g/ha [5]: 30%
pest or weed control at 125 g/ha [6]: 50%
pest or weed control at 500 g/ha [6]: 70%
pest or weed control at 125 g/ha [7]: 20%
pest or weed control at 125 g/ha [8]: 20%
pest or weed control at 125 g/ha [9]: 60%
plant injury at 125 g/ha [10]: 30%
pest or weed control at 125 g/ha [11]: 0%
pest or weed control at 250 g/ha [12]: 35%
pest or weed control at 250 g/ha [13]: 90%
pest or weed control at 250 g/ha [14]: 35%
pest or weed control at 250 g/ha [15]: 35%

CN1C[C@H](c2cc(F)cc(F)c2)[C@@H](C(=O)Nc2ccccc2[S@+](C)[O-])C1=O [Compound 871]
pest or weed control at 125 g/ha [1]: 80%
pest or weed control at 500 g/ha [1]: 80%
pest or weed control at 125 g/ha [2]: 20%
pest or weed control at 500 g/ha [2]: 90%
pest or weed control at 125 g/ha [3]: 80%
pest or weed control at 500 g/ha [3]: 80%
pest or weed control at 125 g/ha [4]: 0%
pest or weed control at 500 g/ha [4]: 30%
pest or weed control at 125 g/ha [5]: 0%
pest or weed control at 500 g/ha [5]: 20%
pest or weed control at 125 g/ha [6]: 0%
pest or weed control at 500 g/ha [6]: 30%
pest or weed control at 125 g/ha [7]: 50%
pest or weed control at 125 g/ha [8]: 0%
pest or weed control at 125 g/ha [9]: 50%
plant injury at 125 g/ha [10]: 20%
pest or weed control at 125 g/ha [11]: 0%
pest or weed control at 250 g/ha [12]: 0%
pest or weed control at 250 g/ha [13]: 0%
pest or weed control at 250 g/ha [14]: 0%
pest or weed control at 250 g/ha [15]: 0%

Cc1c(F)cccc1NC(=O)[C@H]1C(=O)N(C)C[C@@H]1c1cccc(COC(F)F)c1 [Compound 874]
pest or weed control at 125 g/ha [1]: 60%
pest or weed control at 500 g/ha [1]: 90%
pest or weed control at 125 g/ha [2]: 90%
pest or weed control at 500 g/ha [2]: 100%
pest or weed control at 125 g/ha [3]: 90%
pest or weed control at 500 g/ha [3]: 100%
pest or weed control at 125 g/ha [4]: 20%
pest or weed control at 500 g/ha [4]: 30%
pest or weed control at 125 g/ha [5]: 20%
pest or weed control at 500 g/ha [5]: 60%
pest or weed control at 125 g/ha [6]: 40%
pest or weed control at 500 g/ha [6]: 50%
pest or weed control at 125 g/ha [7]: 20%
pest or weed control at 125 g/ha [8]: 20%
pest or weed control at 125 g/ha [9]: 90%
plant injury at 125 g/ha [10]: 50%
pest or weed control at 125 g/ha [11]: 0%
pest or weed control at 250 g/ha [12]: 65%
pest or weed control at 250 g/ha [13]: 100%
pest or weed control at 250 g/ha [14]: 0%
pest or weed control at 250 g/ha [15]: 0%
